Test results as given in patent publication US10233151B2, “Use of a novel 3-aryl-4-catechol-pyrrole-N-propanol compound and the derivatives thereof to treat cancer and diseases related to excessive angiogenesis” (Centre National de la Recherche Scientifique (CNRS), priority 2014, dated 2019).
pIC50: −log10 of the molar value.

Tests used:
[1] = EPR competition with BMPO, superoxide anion from KO2 in DMSO (organic phase); conditions: KO2 5 mM in DMSO, BMPO 25 mM, room temperature; read-out: IC50, inhibition of the formation of the BMPO superoxide adduct
Protocol: The reactivity of compound (1) with superoxide anion in the organic phase was studied by EPR at room temperature using a competition method with the superoxide trapping reagent BMPO (5-tent-butoxycarbonyl-5-methyl-1-pyrroline N-oxide) (FIG. 1A). The superoxide anion source is potassium salt (KO2) used at 5 mM in DMSO after ultrasound-assisted dissolution. The concentrations used for compound (1) are between 0.31 and 40 μM. The trapping reagent BMPO is used at a final concentration of 25 mM. These experiments were carried out with a MiniScope MS 100 EPR spectrometer (Magnettech GmbH, Germany), operating at a frequency of 9.5 GHz (X-band) with the following parameters: magnetic field: 336.0±9.9 mT; sweep time: 20 s; sampling: 4096 points; modulation amplitude: 0.10 mT; modulation frequency: 100 kHz; gain: 900; microwave power: 100 mW.

[2] = system: K562 cells; experiment: Cell growth test (CellTiter-Blue), K562; type: cell-based; conditions: Homo sapiens; K562, normoxia, 72 hours; read-out: IC50 (50% decrease in cell growth)
Protocol: (§1) The biological activity of compound (1), as well as that of its structural analogues, was studied in vitro on 7 different cancer cell lines: • HCT-116 (colorectal cancer) • U87 (glioblastoma) • K562 (myeloid leukemia) and K562 R • MDA-MB 231 (mammary adenocarcinoma) • MCF-7 (mammary adenocarcinoma) • A549 (pulmonary alveolar adenocarcinoma)
(§2) The cells selected for this study were incubated at 37° C. in the presence of compound (1) added in the culture medium at various concentrations and at various times. The set of experiments carried out made it possible to determine the degree of cytotoxicity of the compound tested (IC50), its capacity to induce cell death by apoptosis, in close dependence on extracellular superoxide anion for its activation.
(§3) The effect of compound (1) on the growth of HCT-116, U87, K562, K562R, MDA-MB 231, MCF-7 and A549 cells, cultured in normoxia, was evaluated using a cell growth test (CellTiter-Blue™ Cell Viability Assay, Promega).

[3] = system: caspases 3 and 7 in HCT-116 cells; experiment: Caspase 3 and 7 activity (ApoONE test), HCT-116; type: cell-based
Protocol: In order to specify whether compound (1) leads to apoptotic cell death, the activity of caspases 3 and 7, marker enzymes of apoptosis, was measured using the ApoONE test (Promega) in HCT-116, U87 and HL60 cells treated in normoxia for 24 hours with compound (1) at concentrations varying from 1 μM to 50 μM.
(§4) In order to determine the role of superoxide anion, produced by the cells, in the activation of compound (1), HCT-116 cells were pretreated for 1 hour with the enzyme superoxide dismutase (SOD1) at 50 U/ml, then treated with compound (1). The cells were analyzed to evaluate, firstly, cell survival in normoxia (72 hours of treatment) and in hypoxia (48 hours of treatment). Secondly, the formation of condensed chromatin in normoxia and the activity of caspases 3 and 7 in normoxia were evaluated.

[4] = system: MDA-MB 231 cells; experiment: Cell growth test (CellTiter-Blue), MDA-MB 231; type: cell-based; conditions: Homo sapiens; MDA-MB 231, normoxia, 72 hours; read-out: IC50 (50% decrease in cell growth)
Protocol: as §1, §2, §3

[5] = system: A549 cells; experiment: Cell growth test (CellTiter-Blue), A549; type: cell-based; conditions: Homo sapiens; A549, normoxia, 72 hours; read-out: IC50 (50% decrease in cell growth)
Protocol: as §1, §2, §3

[6] = system: HCT-116 cells; experiment: Condensed chromatin (Hoechst 33258) after SOD pretreatment; type: cell-based; conditions: HCT-116, SOD1 50 U/ml pretreatment, normoxia
Protocol: as §4

[7] = system: human endothelial cells (HUVEC); experiment: De novo formation of vascular tubes on Matrigel; type: cell-based; conditions: HUVEC in Matrigel, 24 hours
Protocol: In order to monitor the effect of compound (1) on “de novo” formation of vascular tubes, human endothelial cells (HUVEC) were cultured in a matrix (Matrigel), in the presence or absence of compound (1). After 24 hours, the effect of compound (1) is analyzed by optical microscopy and is illustrated by photographs. […] Compound (1) thus acts directly on growing endothelial cells by blocking the formation of capillaries, in contrast to the absence of effect on a capillary network already formed, in the “quiescent” state.

[8] = system: HCT-116 cells; experiment: Cell growth test (CellTiter-Blue), HCT-116; type: cell-based; conditions: Homo sapiens, HCT-116, 72 h, HCT-116, normoxia, 72 hours; read-out: IC50 (50% decrease in cell growth)
Protocol: as §1
as §2, with “activation. […]” for “activation.”

[9] = system: HCT-116 cells; experiment: Cell survival after SOD pretreatment; type: cell-based; conditions: HCT-116, SOD1 50 U/ml 1 hour pretreatment
Protocol: as §4

[10] = system: U87 cells; experiment: Cell growth test (CellTiter-Blue), U87; type: cell-based; conditions: Homo sapiens, U-87 MG; U87, normoxia, 72 hours; read-out: IC50 (50% decrease in cell growth)
Protocol: as §1, §2, §3

[11] = system: endothelial cells (HUVEC); experiment: Survival of endothelial cells in proliferative or quiescent phase; type: cell-based, human; conditions: 48 hours
Protocol: In order to understand the difference in the observed effects of compound (1) according to whether the vasculature is already formed or is growing “de novo”, vascular endothelial cells were cultured at two different cell densities so as to obtain proliferative phase cells or quiescent cells, then treated or not by compound (1), at 10 μM (IC50 value: 8 μM) for 48 hours. […] Compound (1) may thus be used to treat diseases associated with excessive and abnormal angiogenesis, like cancer or ARMD.

[12] = EPR at 77 K, disappearance of the O2°- signal; conditions: KO2 2.5 mM in DMSO, dependent on concentration
Protocol: In order to follow the direct interaction of compound (1) with superoxide anion, solid potassium superoxide (KO2) was dissolved by sonication in DMSO (final concentration 2.5 mM), then mixed with compound (1) and immediately cooled by immersion in liquid nitrogen. EPR analysis at 77 K (liquid nitrogen) was carried out with a MiniScope MS 100 EPR spectrometer, operating at a frequency of 9.5 GHz (X-band) with the following parameters: magnetic field: 336.0±49.8 mT; sweep time: 20 s; sampling: 4096 points; modulation amplitude: 0.10 mT; modulation frequency: 100 kHz; gain: 900; microwave power: 6 mW.

Question: With `OCCCn1cc(-c2ccccc2)c(-c2ccc(O)c(O)c2)c1` [compound (1)] as the molecule, how does the pIC50 [1] read?
Answer: The pIC50 was 5.60.

Question: And the pIC50 [2]?
Answer: Its pIC50 is 3.64.

Question: What about the “activation of caspases 3-7 after SOD pretreatment” value ([3]; HCT-116, SOD1 50 U/ml pretreatment, normoxia) of the same molecule?
Answer: The value was “completely suppressed”.

Question: What about the “activity of caspases 3 and 7” value ([3]; HCT-116, normoxia, 24 hours, 1 μM to 50 μM) of the same molecule?
Answer: The value was “significant activation of both caspases”.

Question: What about the pIC50 [4] of the same molecule?
Answer: Its pIC50 is 4.70.

Question: What about the pIC50 [5] of the same molecule?
Answer: Its pIC50 is 4.82.

Question: And the “increase in condensed chromatin after SOD pretreatment” value [6]?
Answer: Its value is “completely suppresses the increase in condensed chromatin”.

Question: What about the “de novo formation of vascular tubes (capillaries)” value [7] of the same molecule?
Answer: The value was “prevents the formation of capillaries”.

Question: And the pIC50 [8]?
Answer: The pIC50 was 5.12.

Question: And the “cytotoxic effect after SOD pretreatment” value ([9]; 10 μM, normoxia, 72 hours)?
Answer: Its value is “completely blocks the cytotoxic effect”.

Question: And the “cytotoxic effect after SOD pretreatment” value ([9]; 25 μM, hypoxia, 48 hours)?
Answer: Its value is “completely blocks the cytotoxic effect”.

Question: What about the pIC50 [10] of the same molecule?
Answer: Its pIC50 is 5.15.

Question: What about the “effect on quiescent endothelial cells” value ([11]; 10 μM, quiescent cells) of the same molecule?
Answer: The value was “acts only on endothelial cells in the proliferative phase”.

Question: What about the inhibition at 10 µM ([11]; Homo sapiens, HUVEC, 10 μM, proliferative phase) of the same molecule?
Answer: The inhibition at 10 µM was 78%.

Question: What about the pIC50 ([11]; Homo sapiens, HUVEC, read-out: IC50 value, vascular endothelial cells) of the same molecule?
Answer: Its pIC50 is 5.10.

Question: And the “EPR signal of superoxide anion” value [12]?
Answer: Its value is “decrease in the EPR signal of superoxide anion”.
